Results: the supplement of paper PMC10307832

Columns and labels:
Experiment in all cases: relative viability (nuclei count vs DMSO), 5 days (fraction); higher = more cells survive
[1] = compound: C1CNCCC1C2=CC(=NN2)C3=CC=NC=C3 + CC(=O)Nc1cccc(-n2c(=O)n(C3CC3)c(=O)c3c(Nc4ccc(I)cc4F)n(C)c(=O)c(C)c32)c1 [Trametinib] (partner 0.02 µM)
Method in brief: (§1)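 After 5 days of treatment, lung cancer cells in 1536-well plates were fixed and stained in a single step (final 0.05% Triton X-100, 1% formaldehyde, 1 ug/ml Hoechst) and their nuclei counted on 4× images. Treatment had been applied by pin tool the day after seeding as one drug alone or as a fixed anchor-drug dose with five library-drug doses (not always all listed) in √10 steps. Relative viability is the nuclei count of treated wells divided by that of vehicle wells, and values are medians of duplicate plates.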

[2] = compound: C1CNCCC1C2=CC(=NN2)C3=CC=NC=C3 + CS(=O)(=O)N1CCN(Cc2cc3nc(-c4cccc5[nH]ncc45)nc(N4CCOCC4)c3s2)CC1 [Pictilisib] (partner 1 µM)
Method in brief: as §1

[3] = compound: C[C@@H](N)c1ccc(C(=O)Nc2ccnc3[nH]ccc23)cc1 + Cc1nc(NC(=O)N2CCC[C@H]2C(N)=O)sc1-c1ccnc(C(C)(C)C(F)(F)F)c1 [Alpelisib] (partner 2 µM)
Method in brief: as §1

Tanzisertib + Phenformin = compound: O[C@H]1CC[C@H](Nc2ncc3nc(Nc4c(F)cc(F)cc4F)n([C@H]4CCOC4)c3n2)CC1 [Tanzisertib] + N=C(N)NC(=N)NCCc1ccccc1 [Phenformin] (partner 250 µM)
Method in brief: as §1

Cell Line	relative viability ([1]; first compound 0.08 µM)	relative viability ([1]; first compound 0.8 µM)	relative viability ([1]; first compound 2.53 µM)	relative viability ([1]; first compound 8 µM)	relative viability ([2]; first compound 0.08 µM)	relative viability ([2]; first compound 0.8 µM)	relative viability ([2]; first compound 2.53 µM)	relative viability ([2]; first compound 8 µM)	relative viability ([3]; first compound 0.04 µM)	relative viability ([3]; first compound 0.1265 µM)	relative viability ([3]; first compound 0.4 µM)	relative viability ([3]; first compound 1.265 µM)	relative viability ([3]; first compound 4 µM)	relative viability (Tanzisertib + Phenformin; first compound 0.08 µM)	relative viability (Tanzisertib + Phenformin; first compound 0.253 µM)	relative viability (Tanzisertib + Phenformin; first compound 0.8 µM)	relative viability (Tanzisertib + Phenformin; first compound 2.53 µM)	relative viability (Tanzisertib + Phenformin; first compound 8 µM)
HCC-827	0.524	0.5	0.599	0.601	0.981	0.918	0.919	0.891	0.982	1.09	1.04	1.03	0.895	0.409	0.417	0.398	0.382	0.242
HOP-62	0.344	0.415	0.425	0.357	0.654	0.816	0.791	0.717	0.761	0.825	0.793	0.705	0.805	0.758	0.709	0.671	0.671	0.729
IA-LM					0.374	0.482	0.371	0.477	0.83	0.999	1.09	1.11	1.06					
LC-2-ad	0.887	1.02	0.93	0.932	0.43	0.469	0.625	0.48	0.894	0.862	0.807	0.843	0.61	0.648	0.58	0.638	0.651	0.433
LCLC-97TM1	0.191	0.204	0.172	0.193	0.275	0.241	0.283	0.175	0.242	0.239	0.343	0.373	0.48	0.471	0.425	0.38	0.476	0.524
LCLC-103H	0.689	0.724	0.67	0.674	0.499	0.61	0.617	0.64	1.15	0.956	1.03	0.94	0.828	0.375	0.327	0.309	0.345	0.343
LK-2	0.605	0.761	0.591	0.88	0.452	0.746	0.572	0.623	1.3	1.02	1.17		0.83	0.77	0.517	0.559	0.548	0.228
LOU-NH91	0.778	0.769	0.841	0.766	0.545	0.521	0.522	0.49	0.684	0.764	0.671	0.609	0.613	0.731	0.763	0.746	0.73	0.439
LU99A	0.48	0.616	0.561	0.543	0.321	0.366	0.316	0.307	0.554	0.554	0.562	0.545	0.52	0.971	0.82	0.884	0.813	0.786
